Target: T1, Dopamine beta hydroxylase (Homo sapiens, UniProt P09172)
T1 construct: 125 μl of plasma; tissue Instituto Português do Sangue Transplantação; host or cells: human plasma from healthy donors
T1 sequence (P09172 40-617 limits assumed): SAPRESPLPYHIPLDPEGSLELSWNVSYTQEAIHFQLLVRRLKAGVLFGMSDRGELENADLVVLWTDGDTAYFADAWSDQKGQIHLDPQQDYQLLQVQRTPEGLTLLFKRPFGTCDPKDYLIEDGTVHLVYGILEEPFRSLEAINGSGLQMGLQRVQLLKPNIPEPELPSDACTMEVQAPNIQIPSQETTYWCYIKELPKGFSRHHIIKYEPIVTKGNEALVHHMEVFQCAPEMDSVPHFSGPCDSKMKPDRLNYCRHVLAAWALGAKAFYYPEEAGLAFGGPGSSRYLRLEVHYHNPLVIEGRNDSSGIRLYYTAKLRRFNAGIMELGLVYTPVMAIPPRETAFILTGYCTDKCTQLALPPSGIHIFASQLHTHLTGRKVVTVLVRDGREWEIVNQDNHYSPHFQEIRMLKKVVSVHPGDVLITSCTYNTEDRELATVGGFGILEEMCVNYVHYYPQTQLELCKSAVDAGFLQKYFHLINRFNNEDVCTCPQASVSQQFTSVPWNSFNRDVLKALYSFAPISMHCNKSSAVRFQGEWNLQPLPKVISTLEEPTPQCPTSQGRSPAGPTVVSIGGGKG
Experiment: Dopamine beta hydroxylase activity in human plasma
Assay type: biochemical
Settings: for Plasma (0.01 μM), activity in % of control: inhibitor 0.01 μM; for Plasma (0.1 μM), activity in % of control: inhibitor 0.1 μM
Procedure, shortened: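 Octopamine production from tyramine over 45 min at 37° C, measured photometrically at 330 nm after SCX extraction and periodate oxidation against an octopamine standard curve, indicates plasma DβH activity. Compounds tested at final 10, 100 and 1000 nM in human plasma, pH 5.0 cofactor buffer, 10 min preincubation; results as % of control.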

Structure (SMILES)	Plasma (0.01 μM), activity in % of control	Plasma (0.1 μM), activity in % of control
Cn1c(CC(=O)N[C@@H]2CCCOC2)c2n(c1=S)C[C@@]1(c3cc(Br)ccc3F)C[C@@H]21 [Example 277, 2-((5aS,6aR)-5a-(5-bromo-2-fluorophenyl)-2-methyl-3-thioxo-2,3,5,5a,6,6a-hexahydrocyclopropa[3,4]pyrrolo[1,2-c]imidazol-1-yl)-N—((R)-tetrahydro-2H-pyran-3-yl)acetamide]	35.4 % of control	3.4 % of control
Cn1c(CC(=O)N[C@@H]2CCCOC2)c2n(c1=S)C[C@@H](c1c(F)c(F)cc(F)c1F)C2 [Example 278, 2-((R)-2-methyl-6-(2,3,5,6-tetrafluorophenyl)-3-thioxo-2,5,6,7-tetrahydro-3H-pyrrolo[1,2-c]imidazol-1-yl)-N—((R)-tetrahydro-2H-pyran-3-yl)acetamide]	84.2 % of control	62.0 % of control
Cn1c(CC(=O)N[C@@H]2CCOC2)c2n(c1=S)C[C@@]1(c3cc(Br)ccc3F)C[C@@H]21 [Example 279, 2-((5aS,6aR)-5a-(5-bromo-2-fluorophenyl)-2-methyl-3-thioxo-2,3,5,5a,6,6a-hexahydrocyclopropa[3,4]pyrrolo[1,2-c]imidazol-1-yl)-N—((R)-tetrahydrofuran-3-yl)acetamide]	61.7 % of control	15.7 % of control
Cn1c(CC(N)=O)c2n(c1=S)C[C@@]1(c3cc(Br)ccc3F)C[C@@H]21 [Example 280, 2-((5aS,6aR)-5a-(5-bromo-2-fluorophenyl)-2-methyl-3-thioxo-2,3,5,5a,6,6a-hexahydrocyclopropa[3,4]pyrrolo[1,2-c]imidazol-1-yl)acetamide]	92.8 % of control	51.4 % of control
Cn1c(CC(=O)N[C@@H]2CCOC2)c2n(c1=S)C[C@@]1(c3cc(Cl)ccc3F)C[C@@H]21 [Example 281, 2-((5aS,6aR)-5a-(5-chloro-2-fluorophenyl)-2-methyl-3-thioxo-2,3,5,5a,6,6a-hexahydrocyclopropa[3,4]pyrrolo[1,2-c]imidazol-1-yl)-N—((R)-tetrahydrofuran-3-yl)acetamide]	107.9 % of control	29.8 % of control
Cn1c(CC(N)=O)c2n(c1=S)C[C@@]1(c3cc(Cl)ccc3F)C[C@@H]21 [Example 282, 2-((5aS,6aR)-5a-(5-chloro-2-fluorophenyl)-2-methyl-3-thioxo-2,3,5,5a,6,6a-hexahydrocyclopropa[3,4]pyrrolo[1,2-c]imidazol-1-yl)acetamide]	99.6 % of control	75.4 % of control
COC[C@@H]1CCCN1C(=O)Cc1c2n(c(=S)n1C)C[C@@H](c1c(F)c(F)cc(F)c1F)C2 [Example 283, 1-((S)-2-(methoxymethyl)pyrrolidin-1-yl)-2-((R)-2-methyl-6-(2,3,5,6-tetrafluorophenyl)-3-thioxo-2,5,6,7-tetrahydro-3H-pyrrolo[1,2-c]imidazol-1-yl)ethan-1-one]	96.0 % of control	72.9 % of control
CC(C)NC(=O)Cc1c2n(c(=S)n1C)C[C@@]1(c3cc(Br)ccc3F)C[C@@H]21 [Example 284, 2-((5aS,6aR)-5a-(5-bromo-2-fluorophenyl)-2-methyl-3-thioxo-2,3,5,5a,6,6a-hexahydrocyclopropa[3,4]pyrrolo[1,2-c]imidazol-1-yl)-N-isopropylacetamide]	84.8 % of control	41.9 % of control
Cn1c(CC(=O)Nc2nncs2)c2n(c1=S)C[C@H](c1c(F)ccc(Cl)c1F)C2 [Example 285, (S)-2-(6-(3-chloro-2,6-difluorophenyl)-2-methyl-3-thioxo-2,5,6,7-tetrahydro-3H-pyrrolo[1,2-c]imidazol-1-yl)-N-(1,3,4-thiadiazol-2-yl)acetamide]	55.8 % of control	22.2 % of control
Cn1c(CC(=O)Nc2ncco2)c2n(c1=S)C[C@@H](c1c(F)ccc(F)c1F)C2 [Example 286, (R)-2-(2-methyl-3-thioxo-6-(2,3,6-trifluorophenyl)-2,5,6,7-tetrahydro-3H-pyrrolo[1,2-c]imidazol-1-yl)-N-(oxazol-2-yl)acetamide]	73.8 % of control	3.4 % of control
Cl.Cn1c(CC(=O)Nc2ccncc2)c2n(c1=S)C[C@H](c1c(F)ccc(Cl)c1F)C2 [Example 287, (S)-2-(6-(3-chloro-2,6-difluorophenyl)-2-methyl-3-thioxo-2,5,6,7-tetrahydro-3H-pyrrolo[1,2-c]imidazol-1-yl)-N-(pyridin-4-yl)acetamide Hydrochloride]	66.8 % of control	15.5 % of control
Cn1c(CCC(=O)N[C@@H]2CCCOC2)c2n(c1=S)C[C@@H](c1c(F)ccc(F)c1F)C2 [Example 288, 3-((R)-2-methyl-3-thioxo-6-(2,3,6-trifluorophenyl)-2,5,6,7-tetrahydro-3H-pyrrolo[1,2-c]imidazol-1-yl)-N—((R)-tetrahydro-2H-pyran-3-yl)propanamide]	82.0 % of control	81.1 % of control
Cn1c(CC(=O)N[C@H]2CCOC2)c2n(c1=S)C[C@@H](c1c(F)ccc(F)c1F)C2 [Example 289, 2-((R)-2-methyl-3-thioxo-6-(2,3,6-trifluorophenyl)-2,5,6,7-tetrahydro-3H-pyrrolo[1,2-c]imidazol-1-yl)-N—((S)-tetrahydrofuran-3-yl)acetamide]	87.1 % of control	58.3 % of control
Cn1c(CC(=O)NCc2cccnc2)c2n(c1=S)C[C@H](c1c(F)ccc(Cl)c1F)C2 [Example 290, (S)-2-(6-(3-chloro-2,6-difluorophenyl)-2-methyl-3-thioxo-2,5,6,7-tetrahydro-3H-pyrrolo[1,2-c]imidazol-1-yl)-N-(pyridin-3-ylmethyl)acetamide]	37.6 % of control	3.8 % of control
Cn1c(CC(=O)NCc2ccc3c(c2)OCO3)c2n(c1=S)C[C@H](c1c(F)ccc(Cl)c1F)C2 [Example 291, (S)—N-(benzo[d][1,3]dioxol-5-ylmethyl)-2-(6-(3-chloro-2,6-difluorophenyl)-2-methyl-3-thioxo-2,5,6,7-tetrahydro-3H-pyrrolo[1,2-c]imidazol-1-yl)acetamide]	30.2 % of control	1.7 % of control
